# Measurements reported in patent US20260256759A1, “CONCOMITANT ADMINISTRATION OF GLUCOCORTICOID RECEPTOR MODULATOR RELACORILANT AND CYP2C8 SUBSTRATES” (priority 2020, published 2026).
# Target: T1, CYP2C8 (Homo sapiens, UniProt P10632)
# T1 sequence (P10632 1-490): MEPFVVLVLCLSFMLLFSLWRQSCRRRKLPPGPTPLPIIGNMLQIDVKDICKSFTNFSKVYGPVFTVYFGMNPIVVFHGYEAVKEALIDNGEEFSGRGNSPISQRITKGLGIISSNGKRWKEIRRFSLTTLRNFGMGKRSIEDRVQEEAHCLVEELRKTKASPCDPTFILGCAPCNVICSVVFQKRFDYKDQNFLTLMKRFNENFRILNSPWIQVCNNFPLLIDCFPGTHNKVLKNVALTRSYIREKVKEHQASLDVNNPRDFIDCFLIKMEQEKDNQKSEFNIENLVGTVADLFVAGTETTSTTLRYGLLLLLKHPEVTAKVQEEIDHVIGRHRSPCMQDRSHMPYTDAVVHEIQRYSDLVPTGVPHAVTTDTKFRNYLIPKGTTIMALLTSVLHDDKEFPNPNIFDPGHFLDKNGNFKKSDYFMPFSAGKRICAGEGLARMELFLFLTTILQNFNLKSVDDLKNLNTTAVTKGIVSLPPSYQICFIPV
# Assay: Clinical drug-drug interaction study in healthy volunteers (pioglitazone with/without relacorilant)
# Settings: Treatment E (with relacorilant 350 mg) vs Treatment B (alone)
# Procedure: An open-label, crossover study was conducted in healthy subjects to determine the effect of relacorilant on the plasma exposure of pioglitazone, a known probe substrate CYP2C8. A single dose of 15 mg of pioglitazone was administered alone and pharmacokinetic (PK) samples were collected before dosing (0 hour) and at 0.5, 1, 1.5, 2, 2.5, 3, 4, 6, 8, 12, 18, 24, 36, 48, 60, and 72 hours post-dose. Relacorilant (350 mg) was then administered once a day for 10 consecutive days. On the following day, a single dose of 15 mg of pioglitazone was administered in combination with relacorilant 350 mg and pharmacokinetic (PK) samples were again collected at pre-dose through 72 hours post-dose at the same timepoints as described above. The plasma concentrations of pioglitazone and its metabolite, pioglitazone M4 were evaluated by validated bioanalytical assays on each dosing occasion of pioglitazone.
structure (smiles),measurement,value
"CCc1ccc(CCOc2ccc(CC3SC(=O)NC3=O)cc2)nc1 (stereo not drawn) [Pioglitazone, pioglitazone]","AUC0-tz, Ratio of Geometric LSMs (Test/Reference)",74.71%
same,"AUCinf, Ratio of Geometric LSMs (Test/Reference)",74.83%
same,"Cmax, Ratio of Geometric LSMs (Test/Reference)",77.82%
